Assay results: PMC7321408, “One-Pot Multicomponent Synthesis and Bioevaluation of Tetrahydroquinoline Derivatives as Potential Antioxidants, α-Amylase Enzyme Inhibitors, Anti-Cancerous and Anti-Inflammatory Agents” (Molecules, 2020)
Values after ≈ are worked out from the molar mass of the structure shown. Where two headings read alike, the source gives them in different places.

How the values were obtained:
[1] = system: NO generated by LPS-induced macrophages; assay: Nitric oxide assay (Griess) in LPS-induced macrophages; type: cell-based, murine; settings: Mus musculus, Macrophage, 18 h, LPS 1 µg/mL, read-out: % NO Production (Mean ± SEM)
Protocol: A Griess reagent, a spectrophotometric determination of nitrite level, was carried out to measure the nitrite level in the conditioned medium of macrophages treated with lipopolysaccharide (LPS). Sodium nitrite (NaNO2) was used as a standard compound for the standard curve (Figure 8). The NO concentrations were obtained using the standard curve equation: y = 0.0083x + 0.0017, R^2 = 0.9999, where y is the absorbance at 540 nm and x is the NO concentration in µM. The inhibitory activity of the tested compounds towards NO generated by LPS-induced macrophages was obtained from the calculated value of x.
The anti-inflammatory effect of the synthesized compounds in murine macrophages was evaluated by using the Griess reaction method, described previously. In brief, 1 × 10^6 were plated in a 96-well plate and incubated in a 5% CO2 incubator at 37 °C for 24 h, pre-treated with different concentrations (100 µM, 50 µM, 10 µM and 1 µM) of synthetic compounds for another 2 h and challenged with LPS (1 µg/mL) for an additional 18 h. Equal volumes of Griess reagent (1% sulphanilamide in 50% phosphoric acid and 0.1% naphthyl ethylenediamine dihydrochloride in distilled water and vortexed) and culture medium were mixed and the absorbance was taken at 540 nm. Lipopolysaccharide (LPS) was taken as a blank and piroxicam was taken as a positive control. A t-test was applied to determine the significance of the results.

[2] = system: Hep-2C cells; assay: MTT assay against Hep-2C cells; type: cell-based, Human; settings: read-out: IC50 (Mean ± SEM) Hep-2C Cells
Protocol: Hep-2C cell line experiments were performed in the Immunology Lab of the National Institute of Health (NIH), Islamabad, Pakistan. Human cervix carcinoma cells Hep-2C (ATCC HB-8065) were cultured in Dulbecco’s modified Eagle’s medium (DMEM), comprising 10% fetal calf serum (10% FCS) and supplemented with 2 mM L-glutamine, 100 U/mL penicillin, 100 µg/mL streptomycin and 1 mM Na pyruvate, at 37 °C in a humidified 5% CO2 incubator.
The tetrazolium dye 3-(4, 5-dimethyl thiazolyl-2)-2, 5-diphenyltetrazolium bromide (MTT) was used to assess the cytotoxic potential of the test compounds. In living cells, MTT is reduced into its insoluble purple product formazan, which is measured spectrophotometrically.
Hep-2C cells, in a density of 1 × 10^6 (> 90% cell viability), were cultured in a 96-well plate and treated with different concentrations of the test compounds for 24, 48 and 72 h. Ten microliters of MTT (1 mg per mL) were added per well followed by incubation for 4 h. Insoluble formazan crystals were dissolved by adding 100 µL of DMSO. Cells were then incubated for another 2 h. Absorbance was measured at 570 nm by a microplate reader. Untreated Hep-2C cells were taken as controls and DMSO as a negative. % cell viability = (abssample − absblank)/(abscontrol − absblank) × 100

[3] = DPPH free radical scavenging assay; settings: mean ± SEM, n = 3; for IC50 (DPPH radical scavenging): concentration to scavenge 50% of the DPPH radicals
Protocol: The % free radical scavenging activity (%FRSA) of the synthetic compounds was evaluated by the discoloration of an unstable DPPH reagent to the stable yellow-colored 2,2-diphenyl-1-picrylhydrazine molecule by accepting one electron from a donor antioxidant; the mechanism is shown in Scheme 2.
The % FRSA (free radical scavenging activity) of the synthetic compounds was determined by using the method of Tai et al. with slight modifications. The antioxidant potential was determined by detecting the capacity of the synthetic compounds to quench the DPPH free radicals. The synthetic compounds were taken in a 96-well plate at three-fold concentrations of 200 µg/mL, 66.6 µg/mL, 22.2 µg/mL and 7.4 µg/mL. DPPH free radicals were added to entire wells to make up the volume up to 200 µL. DMSO and ascorbic acid were taken as negative and positive controls, respectively. The absorbance was taken at 630nm using a microplate reader (ELx800 BioTek). The percentage of scavenging activity was calculated by the given formula:% scavenging activity = (1 − Abs/Abc) × 100
Abs = sample’s absorbance; Abc = control’s absorbance.

[4] = MTT cytotoxicity against raw macrophages; type: cell-based, albino rats; settings: albino, rat; for viability at 24 h, 1 µM / viability at 24 h, 10 µM / viability at 24 h, 50 µM / viability at 24 h, 100 µM: peritoneal macrophages (raw macrophages), raw macrophages, MTT, read-out: % Cell Viability; for IC50 at 24 h: primary peritoneal macrophages, mean ± SEM, n = 3
Protocol: The % cell viability of the synthetic library was evaluated in vitro by measuring the mitochondrial dehydrogenase activity (MTT test) on raw macrophages.
The cytotoxic potential was assessed by using an MTT 3-(4,5-dimethyl thiazole-2-yl)-2,5- diphenyl tetrazolium bromide assay. Briefly, macrophages were extracted from the peritoneal cavity of albino rats and plated at a density of 1 × 10^6 per well in a 96-well plate and incubated in a 5% CO2 incubator at 37 °C for 24 h. The cells were treated with various concentrations of the test compounds (100 µM, 50 µM, 10 µM and 1 µM) or vehicle alone. The test compounds were first dissolved in DMSO to make a 100 mM stock solution and then further dilutions were made from this stock solution. After 24 h of incubation, 20 µL of MTT (1 mg/mL in normal saline) was added into each well and incubated under the same conditions for 2 h. Mitochondrial succinate dehydrogenase converted MTT in live cells into purple formazan crystals. The formazan crystals were then solubilized in 100 µL DMSO, and the absorbance was measured at 570 nm. The % cell viability was calculated by the following formula; % cell viability = (abssample − absblank)/(abscontrol − absblank) × 100

[5] = system: brine shrimp nauplii; assay: Brine shrimp lethality bioassay; type: in vivo; settings: 24 h, n = 3
Protocol: Brine shrimp eggs were hatched in a shallow rectangular plastic dish and filled with artificial seawater, which was prepared with a commercial salt mixture. In a 96-well plate, 150 µL of artificial seawater was added and 10 nauplii were added into this. Test compounds (400, 200, 100 and 50 µg/mL) were added into each well and the final volume was made up by adding the artificial seawater. The well plate was left uncovered under a lamp. The number of surviving shrimps were counted and recorded after 24 h. The test was repeated in triplicate. […] The percentage mortality (%M) was also calculated by dividing the number of dead nauplii by the total number and then multiplied by 100.

[6] = system: carrageenan-induced paw edema; assay: Carrageenan-induced paw edema (in vivo anti-inflammatory activity); design: species or system BALB/C albino mice; unit not given beside the values; settings: 10 mg/kg, mice, n = 5
Protocol: At 7–8 weeks old, male BALB/C albino mice (29–35 g), were purchased from The National Institute of Health (NIH), Islamabad, Pakistan. Five animals were housed per group and placed in a controlled temperature and humidity-controlled room (22 °C and 66 ± 5%, respectively) in a 12 h light–dark cycle and provided with water and food ad libitum. Ethical approval was taken from the bio-ethical committee of Quaid-I-Azam University (Approval No. BEC-FBS-QAU2018-119) and all protocols were conducted following the Ethical Guide to the Code of Practice for the Housing and Care of Animals Act 1986 (ARRIVE (Animal Research: Reporting In Vivo Experiments) guidelines). The anti-inflammatory activity of the synthesized compounds was evaluated by using the carrageenan-induced rat paw edema assay. To determine the dose response of tetrahydroquinoline derivatives, animals were first given a dose of 0.1, 1 and 10 mg/kg against 100 µL carrageenan (1% solution in normal saline)/paw. Treatment was given 60 min before carrageenan injection. Readings were taken at 4 h post carrageenan injection. The in vivo anti-inflammatory activity was performed following the procedure described by Koksal, et al. in 2017. Paw edema was induced by injecting 100 µL of 1% sterile carrageenan solution into the right hind paw of mice. Synthesized compounds (10 mg/kg), vehicle (saline with 2% DMSO) and drug (acetylsalicylic acid, ASA 10 mg/kg) were administered to the mice orally by gastric intubation 60 min before injecting carrageenan into the right hind paw. The decrease in edema was measured by vernier calipers every 2 h.

SMILES | IC50 (DPPH radical scavenging) [3] [µg/mL] | activity at 1 µM [1] [%] | activity at 10 µM [1] [%] | activity at 50 µM [1] [%] | activity at 100 µM [1] [%] | % DPPH Scavenging Activity ([3]; 7.4 µg/mL) [%] | % DPPH Scavenging Activity ([3]; 22.22 µg/mL) [%] | % DPPH Scavenging Activity ([3]; 66.66 µg/mL) [%] | % DPPH Scavenging Activity ([3]; 200 µg/mL) [%] | viability at 24 h, 1 µM [4] [%] | viability at 24 h, 10 µM [4] [%] | viability at 24 h, 50 µM [4] [%] | viability at 24 h, 100 µM [4] [%] | IC50 at 24 h [4] [µM] | LD50 ± SEM (brine shrimp lethality) [5] [µg/mL] | further results
CN1C(C(=O)Nc2ccccn2)=C(O)c2ccccc2S1(=O)=O [Piroxicam, reference compound] |  | 25.4 ± 0.45 | 20.7 ± 0.24 | 16.5 ± 0.41 | 13.4 ± 0.54 |  |  |  |  |  |  |  |  |  |  | 
N.N.[Cl][Pt][Cl] [Cisplatin, reference compound] |  |  |  |  |  |  |  |  |  |  |  |  |  |  |  | IC50 ([2]; 24 h): 19.1 ± 1.06 µM; IC50 ([2]; 48 h): 17.5 ± 1.07 µM; IC50 ([2]; 72 h, listed as cisplatin): 14.6 ± 1.01 µM; IC50 ([2]; 72 h): 14.6 ± 1.01 µM
O=C1O[C@H]([C@@H](O)CO)C(O)=C1O [Ascorbic Acid, reference compound] | 41.38 ± 0.34 (≈ 235 µM) |  |  |  |  | 31.35 ± 0.23 | 52.12 ± 0.31 | 76.63 ± 0.19 | 89.01 ± 0.18 |  |  |  |  |  |  | 
COc1cccc2c1C(=O)c1c(O)c3c(c(O)c1C2=O)C[C@@](O)(C(=O)CO)C[C@@H]3O[C@H]1C[C@H](N)[C@H](O)[C@H](C)O1 [Doxorubicin, reference compound] |  |  |  |  |  |  |  |  |  | 51 ± 1.34 | 40 ± 0.87 | 33 ± 1.01 | 17 ± 0.83 | 17.1 ± 0.37 | 124 ± 1.54 | 
CC(=O)Oc1ccccc1C(=O)O [Acetyl salicylic acid, reference compound] |  |  |  |  |  |  |  |  |  |  |  |  |  |  |  | Paw thickness ([6]; 0 h after carrageenan injection): 2.14 ± 0.08; Paw thickness ([6]; 2 h after carrageenan injection): 2.26 ± 0.05; Paw thickness ([6]; 4 h after carrageenan injection): 2.32 ± 0.04; Paw thickness ([6]; 6 h after carrageenan injection): 2.39 ± 0.02
O=c1c(O)c(-c2ccc(O)c(O)c2)oc2cc(O)cc(O)c12 [Quercetin, reference compound] | 41.64 ± 1.01 (≈ 138 µM) |  |  |  |  | 42.34 ± 0.36 | 58.31 ± 0.28 | 69.81 ± 0.17 | 81.43 ± 0.21 |  |  |  |  |  |  | 

Now from value to compound, other results behind:

IC50 (DPPH radical scavenging) [3] [µg/mL] | SMILES | activity at 1 µM [1] [%] | activity at 10 µM [1] [%] | activity at 50 µM [1] [%] | activity at 100 µM [1] [%] | % DPPH Scavenging Activity ([3]; 7.4 µg/mL) [%] | % DPPH Scavenging Activity ([3]; 22.22 µg/mL) [%] | % DPPH Scavenging Activity ([3]; 66.66 µg/mL) [%] | % DPPH Scavenging Activity ([3]; 200 µg/mL) [%] | viability at 24 h, 1 µM [4] [%] | viability at 24 h, 10 µM [4] [%] | viability at 24 h, 50 µM [4] [%] | viability at 24 h, 100 µM [4] [%] | IC50 at 24 h [4] [µM] | LD50 ± SEM (brine shrimp lethality) [5] [µg/mL] | further results
53.63 ± 0.13 (≈ 246 µM) | CCN(CC)CN1CCCc2ccccc21 [SF11, N-((3,4-dihydroquinolin-1(2H)-yl)methyl)-N-ethylethanamine] | 43 ± 0.66 | 39.8 ± 0.61 | 33.7 ± 0.53 | 25.7 ± 0.44 | 7.76 ± 0.18 | 15.54 ± 0.09 | 30.9 ± 0.12 | 43.93 ± 0.28 | 95 ± 0.91 | 82 ± 0.84 | 62 ± 1.2 | 41 ± 0.83 | 26.4 ± 0.31 | 200 ± 2.11 | 
35.89 ± 0.33 (≈ 155 µM) | c1ccc2c(c1)CCCN2CN1CCNCC1 [SF6, 1-(Piperazine-1-ylmethyl)-1,2,3,4-tetrahydroquinoline] | 77.3 ± 0.62 | 72.33 ± 0.59 | 61.11 ± 0.54 | 52.44 ± 0.49 | 8.81 ± 0.21 | 37.75 ± 0.31 | 50.32 ± 0.18 | 66.61 ± 0.13 | 91 ± 0.99 | 87 ± 0.82 | 65 ± 0.76 | 60 ± 1.21 | 23.37 ± 0.17 | 121.2 ± 1.09 | 
